A word on the inhibition: it is the change of the read-out against control, counted positive when it falls. A high value points to a strong effect. By IC50 is commonly meant the concentration needed to halve the response being measured. Low readings indicate inhibition by little substance, high ones a need for much substance. One may read the melting point as the temperature of the solid-liquid transition. A word on the Ki: it is a dissociation constant, usually derived from enzyme kinetics or from competition with a known ligand. The low end stands for tighter binding, the high end for weaker binding.

The target of data set [1] is bovine carbonic anhydrase-II (bCA-II) (Bos taurus, UniProt P00921). The data set is described as follows: In-vitro bCA-II inhibition, spectrophotometric p-nitrophenyl acetate assay. The conditions noted are these: for IC50 / IC50 ± SEM: NA = Not active. Format: biochemical. On the procedure: Each inhibitory well-consisted of 140 μL of HEPES-Tris buffer solution, 20 μL of bCA-II enzyme solution (0.1 mg/mL HEPES-Tris buffer), and 20 μL of test compound in HPLC grade DMSO (maintain 10% of the final concentration). […] Substrate p-nitrophenyl acetate (p-NPA) (0.7 mM) was prepared in HPLC grade methanol and the reaction was started by adding 20 μL to a well in a 96-well-plate. The amount of product formed was measured for 30 min continuously at 1 min intervals at 400 nm in a 96-well-plate using xMARK microplate spectrophotometer, Bio-Rad (USA). The activity of the controlled compound was taken as 100%. All experiments were carried out in triplicates of each used concentration, and results are represented as a mean of the triplicate.

Data set [2] deals with human carbonic anhydrase-II (hCA-II) (Homo sapiens, UniProt P00918). The data set is described as follows: In-vitro hCA-II inhibition, spectrophotometric p-nitrophenyl acetate assay. Format: biochemical. The conditions noted are these: for IC50: NA = Not active; for selectivity hCA-II versus bCA-II: from in-vitro results on bCA-II and hCA-II.
Another data set deals with bCA-II (Bos taurus, UniProt P00921). The data set can be described thus: Kinetics study on bCA-II (Lineweaver-Burk, secondary replot, Dixon plot). It is filed as biochemical, bovine. On the procedure:
(§1) To investigate the mechanism of action of these compounds, kinetics studies were performed. The kinetics studies were used to discover the type of inhibition and dissociation constant (Ki). […] From the kinetics studies, it was deduced that the compound 4d is a competitive inhibitor for both bCA-II and hCA-II. The Lineweaver-Burk plots were used for determination of the type of inhibition, in which the reciprocal of substrate concentrations was plotted against the reciprocal of the rate of the reaction to monitor the effect of the inhibitor on both Km and Vmax. […] In competitive inhibition, the Km of enzyme increased, while Vmax are not affected.
Figure 2 The mode of inhibition of bCA-II by compound 4d. […] (B) Secondary re-plot of Lineweaver–Burk plot between the slopes of each line on Lineweaver–Burk plot vs. different concentrations of compound 4d. (C) Dixon plot of reciprocal rate of reaction (velocities) vs. different concentrations of compound 4d.
(§2) The Ki values of compounds 4d for both enzymes bCA-II and hCA-II were deduced by secondary replots of Lineweaver-Burk plots by plotting the slope of each line in the Lineweaver-Burk plots against different concentrations of compound 4d (Figures 2B, 3B). The Ki values were confirmed by Dixon plot after plotting the reciprocal of the rate of reaction against different concentrations of compound 4d (Figures 2C, 3C).

A further data set addresses hCA-II (Homo sapiens, UniProt P00918). The data set can be described thus: Kinetics study on hCA-II (Lineweaver-Burk, secondary replot, Dixon plot). It is filed as biochemical. The method, then: as §1
Figure 3 The mode of inhibition of hCA-II by compound 4d. […] (B) Secondary re-plot of Lineweaver–Burk plot between the slopes of each line on Lineweaver–Burk plot vs. different concentrations of compound 4d. (C) Dixon plot of reciprocal rate of reaction (velocities) vs. different concentrations of compound 4d.
as §2

[3] abbreviates: substrate p-nitrophenyl acetate.

Chain of bovine carbonic anhydrase-II (bCA-II) (P00921 whole entry): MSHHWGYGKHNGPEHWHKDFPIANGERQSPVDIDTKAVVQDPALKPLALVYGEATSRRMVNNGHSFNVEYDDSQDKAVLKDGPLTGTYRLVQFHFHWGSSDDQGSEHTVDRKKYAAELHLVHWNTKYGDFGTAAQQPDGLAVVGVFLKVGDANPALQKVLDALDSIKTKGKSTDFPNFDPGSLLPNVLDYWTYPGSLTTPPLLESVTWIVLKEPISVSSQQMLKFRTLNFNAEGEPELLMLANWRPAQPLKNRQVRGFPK
Chain of bCA-II (P00921 whole entry): as above

Regarding `Nn1c(-c2ccccc2)nc2ccccc2c1=O` [Compound 4a, 3-Amino-2-Phenylquinazolin-4(3H)-one], the melting point lay within 200 to 202 °C. This compound also gave an inhibition at 500 µM in data set [1] (0.5 mM) of 75.2%. Moreover, 53.6 ± 0.85 µM corresponded to half-maximal inhibition in data set [1] (IC50). In addition, the inhibition at 500 µM in data set [2] (hCA-II, 0.5 mM) was found to be 75.2%. The IC50 in data set [2] (hCA-II) was found to be 59.6 ± 1.03 µM.

`Nn1c(-c2cccc(Cl)c2)nc2ccccc2c1=O` [Compound 4m, 3-Amino-2-(3-Chlorophenyl) Quinazolin-4(3H)-one] had a melting point of 144 to 145 °C. At 500 µM the inhibition in data set [1] (0.5 mM) was 60%. In data set [1], the IC50 was determined as 8.9 ± 0.31 µM. Also, the inhibition at 500 µM in data set [2] (hCA-II, 0.5 mM) turned out to be 30.5%.

Consider `Nn1c(-c2ccc(Br)cc2)nc2ccccc2c1=O` [Compound 4g, 3-Amino-2-(4-Bromophenyl) Quinazolin-4(3H)-one], for which the melting point is 184 to 185 °C. Also, testing at 500 µM in data set [1] (0.5 mM) gave an inhibition of 85.3%. Further, in data set [1], the midpoint of inhibition, the IC50, lay at 33.6 ± 0.22 µM. The “selectivity hCA-II versus bCA-II” value in data set [2] is “more selective inhibitors for hCA-II”. Further, the inhibition at 500 µM in data set [2] (hCA-II, 0.5 mM) stood at 85.3%. This compound also displayed an IC50 in data set [2] (hCA-II) of 14 ± 0.6 µM.

As for `COc1cc(-c2nc3ccccc3c(=O)n2N)cc(OC)c1OC` [Compound 4p, 3-Amino-2-(3,4,5-Trimethoxyphenyl) Quinazolin-4(3H)-one], the inhibition at 500 µM in data set [1] (0.5 mM) was 87.3%; in data set [2] (hCA-II, 0.5 mM), 27.4%. The compound further gave an IC50 in data set [1] of 26.8 ± 0.23 µM.

`Nn1c(-c2cccc(F)c2)nc2ccccc2c1=O` [Compound 4j, 3-Amino-2-(3-Fluorophenyl) Quinazolin-4(3H)-one] had a melting point of 164 to 165 °C. For the same compound, testing at 500 µM in data set [1] (0.5 mM) gave an inhibition of 78.6%. This compound showed an IC50 in data set [1] of 46.6 ± 0.39 µM. In data set [2] (hCA-II, 0.5 mM), this compound had an inhibition at 500 µM of 28.1%.

Take `COc1ccc(-c2nc3ccccc3c(=O)n2N)cc1` [Compound 4o, 3-Amino-2-(4-Methoxyphenyl) Quinazolin-4(3H)-one]: the inhibition at 500 µM stood at 19.9% in data set [1] (0.5 mM) and 89.4% in data set [2] (hCA-II, 0.5 mM). Further, in data set [1], the “IC50 ± SEM” value is “inactive”. The “selectivity hCA-II versus bCA-II” value in data set [2] was “more selective inhibitors for hCA-II”. This compound showed an IC50 in data set [2] (hCA-II) of 22 ± 0.4 µM.

`Nn1c(-c2cccc([N+](=O)[O-])c2)nc2ccccc2c1=O` [Compound 4d, 3-Amino-2-(3-Nitrophenyl) Quinazolin-4(3H)-one] displayed a melting point of 206 to 208 °C. The compound further displayed an inhibition at 500 µM in data set [1] (0.5 mM) of 92.9%. In addition, the IC50 in data set [1] came out at 19.7 ± 1.02 µM. Further, the inhibition at 500 µM in data set [2] (hCA-II, 0.5 mM) is 94.2%. This compound had an IC50 in data set [2] (hCA-II) of 21.5 ± 0.52 µM. Further, the mode of inhibition result at bCA-II (Lineweaver-Burk plot) is reported as “competitive”. The affinity on bCA-II (setting [3]), expressed as Ki, was 13 ± 0.013 µM. For the same compound, at hCA-II (Lineweaver-Burk plot), the mode of inhibition result was “competitive”. The same compound came in with a Ki on hCA-II (setting [3]) of 14.25 ± 0.017 µM.

`Nn1c(-c2ccccc2F)nc2ccccc2c1=O` [Compound 4i, 3-Amino-2-(2-Fluorophenyl) Quinazolin-4(3H)-one]: the melting point is 169 to 170 °C. The inhibition at 500 µM in data set [1] (0.5 mM) is 17.6%. Also, the “IC50 ± SEM” value in data set [1] is “inactive”. The same compound gave an inhibition at 500 µM in data set [2] (hCA-II, 0.5 mM) of 27.8%.

In turn, `Nn1c(-c2ccc([N+](=O)[O-])cc2)nc2ccccc2c1=O` [Compound 4e, 3-Amino-2-(4-nitrophenyl) quinazolin-4(3H)-one] showed a melting point of 224 to 225 °C. In data set [1] (0.5 mM), this compound returned an inhibition at 500 µM of 80.7%. In data set [1], the IC50 stood at 9.1 ± 0.21 µM. In data set [2] (hCA-II, 0.5 mM), this compound came in with an inhibition at 500 µM of 92.7%. Half-maximal inhibition in data set [2] (hCA-II) (IC50) was put at 39.9 ± 2.21 µM.

`Nn1c(-c2ccccc2[N+](=O)[O-])nc2ccccc2c1=O` [Compound 4c, 3-Amino-2-(2-Nitrophenyl) Quinazolin-4(3H)-one] gave a melting point of 180 to 182 °C. This compound also yielded an inhibition at 500 µM in data set [1] (0.5 mM) of 80.5%. The IC50 in data set [1] was 11.7 ± 0.36 µM. Moreover, 500 µM produced 88.5% inhibition in data set [2] (hCA-II, 0.5 mM). Moreover, the IC50 in data set [2] (hCA-II) came out at 21.1 ± 1.36 µM.

For the compound “3-Amino-2-(Napthalen-1-yl) Quinazolin-4(3H)-one [Compound 4b]”, the “% Inhibition (0.5 mM)” value in data set [1] (0.5 mM) was 83.6%; in data set [2] (hCA-II, 0.5 mM) it was 38.1%. For the same compound, inhibition in data set [1] was half-maximal at 67.3 ± 0.42 µM (IC50).

Consider `Nn1c(-c2ccc(F)cc2)nc2ccccc2c1=O` [Compound 4k, 3-Amino-2-(4-Fluorophenyl) Quinazolin-4(3H)-one], for which the melting point fell in the range of 176 to 178 °C. At 500 µM the inhibition in data set [1] (0.5 mM) was 76.3%. For the same compound, the IC50 in data set [1] was found to be 18.3 ± 0.51 µM. In data set [2] (hCA-II, 0.5 mM), this compound had an inhibition at 500 µM of 36.2%.

The compound `Nn1c(-c2ccc(Cl)cc2)nc2ccccc2c1=O` [Compound 4n, 3-Amino-2-(4-Chlorophenyl) Quinazolin-4(3H)-one] displayed a melting point of 165 to 166 °C. At 500 µM the inhibition in data set [1] (0.5 mM) was 54.2%. This compound had an IC50 in data set [1] of 28.2 ± 0.01 µM. The compound also returned an inhibition at 500 µM in data set [2] (hCA-II, 0.5 mM) of 24.3%.

Compound `Cc1ccc(-c2nc3ccccc3c(=O)n2N)cc1` [Compound 4h, 3-Amino-2-(4-Methylphenyl) Quinazolin-4(3H)-one] gave a melting point of 294 to 296 °C. For the same compound, at 500 µM the inhibition in data set [1] (0.5 mM) was 92.4%. The IC50 in data set [1] was 38 ± 0.62 µM. This compound registered an inhibition at 500 µM in data set [2] (hCA-II, 0.5 mM) of 92.4%. The IC50 in data set [2] (hCA-II) stood at 53 ± 2.12 µM.

The compound `Nn1c(-c2ccccc2Br)nc2ccccc2c1=O` [Compound 4f, 3-Amino-2-(2-Bromophenyl) Quinazolin-4(3H)-one] displayed a melting point of 204 to 206 °C. Also, the inhibition at 500 µM in data set [1] (0.5 mM) amounted to 88.9%. In data set [1], half-maximal inhibition (IC50) required 17.9 ± 0.56 µM. Further, in data set [2] (hCA-II, 0.5 mM), testing at 500 µM gave an inhibition of 98.9%. In data set [2] (hCA-II), this compound gave an IC50 of 43.5 ± 1.51 µM.

`Nn1c(-c2ccccc2Cl)nc2ccccc2c1=O` [Compound 4l, 3-Amino-2-(2-Chlorophenyl) Quinazolin-4(3H)-one] registered a melting point of 160 to 162 °C. This compound also displayed an inhibition at 500 µM in data set [1] (0.5 mM) of 78.2%. Moreover, the IC50 in data set [1] is 10.7 ± 0.82 µM. In data set [2] (hCA-II, 0.5 mM), this compound registered an inhibition at 500 µM of 28.7%.

For the origin of these results see paper PMC7736042, “Quinazolinones as Competitive Inhibitors of Carbonic Anhydrase-II (Human and Bovine): Synthesis, in-vitro, in-silico, Selectivity, and Kinetics Studies” (Frontiers in Chemistry, 2020).
